Assay results published in publication PMC10507154 (iScience, 2023).

Experiments:
[1] = target: T1, SquF (MaSquF) (Marinobacterium aestuarii, UniProt A0A1A9EZ66); assay: LC-MS of glucose; type: biochemical; details: 0.5 mM NADPH, 6-dehydroglucose generated from SQ by SqoD, RT
T1 sequence (A0A1A9EZ66 1-300): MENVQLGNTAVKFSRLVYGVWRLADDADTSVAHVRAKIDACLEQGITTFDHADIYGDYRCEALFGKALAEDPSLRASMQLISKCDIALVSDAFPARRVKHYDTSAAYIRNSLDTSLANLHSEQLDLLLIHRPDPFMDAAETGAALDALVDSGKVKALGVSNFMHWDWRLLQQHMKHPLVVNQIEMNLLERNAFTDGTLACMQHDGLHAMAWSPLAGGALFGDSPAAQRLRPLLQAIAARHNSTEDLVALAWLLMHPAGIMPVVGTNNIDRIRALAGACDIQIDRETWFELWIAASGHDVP

[2] = target: T1, SquF (MaSquF); assay: DNPH derivatization and LC-MS of 6-dehydroglucose; type: biochemical; details: 10 mM NADP^+, 100 mM glucose, 50 mM CAPSO pH 10.0, RT; reverse reaction

Row | SMILES | LC-MS of glucose; NADPH consumption [1] | DNPH derivatization and LC-MS of 6-dehydroglucose [2]
1 | NC(=O)C1=CN([C@@H]2O[C@H](COP(=O)(O)OP(=O)(O)OC[C@H]3O[C@@H](n4cnc5c(N)ncnc54)[C@H](OP(=O)(O)O)[C@@H]3O)[C@@H](O)[C@H]2O)C=CC1 [NADPH] | Inclusion of SquF and NADPH in the assay followed by LC-MS analysis | 
2 | OC[C@H]1OC(O)[C@H](O)[C@@H](O)[C@@H]1O (stereo partly drawn) [D-glucose] |  | SquF also catalyzed the reverse reaction, oxidation of glucose to 6-dehydoglucose
